Our source for the IC50 values is ChEMBL document CHEMBL4808240, “Design, synthesis and analysis of novel sphingosine kinase-1 inhibitors to improve oral bioavailability” (Bioorg Med Chem Lett, 2021).

Bounds are passed on as bounds.

For the assay, the target named is Sphingosine kinase 1 (Homo sapiens, UniProt Q9NYA1). Briefly: Inhibition of recombinant full length GST-tagged human SPHK1 expressed in baculovirus expression system incubated for 1 hr in presence of ATP by Alexa Fluor 647 tracer based Adapta assay.
Chain of Sphingosine kinase 1 (Q9NYA1 whole entry): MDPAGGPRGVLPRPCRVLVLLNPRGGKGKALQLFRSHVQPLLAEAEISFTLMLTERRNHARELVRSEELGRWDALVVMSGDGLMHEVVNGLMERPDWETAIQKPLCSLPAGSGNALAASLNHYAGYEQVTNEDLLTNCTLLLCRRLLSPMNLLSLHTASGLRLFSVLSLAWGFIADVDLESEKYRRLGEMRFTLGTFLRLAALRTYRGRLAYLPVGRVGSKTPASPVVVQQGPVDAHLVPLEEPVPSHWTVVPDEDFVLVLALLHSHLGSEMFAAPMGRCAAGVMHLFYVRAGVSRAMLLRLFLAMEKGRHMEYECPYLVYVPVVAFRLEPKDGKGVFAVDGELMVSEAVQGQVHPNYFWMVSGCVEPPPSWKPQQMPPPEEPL
With `O=C(N/N=C/c1c(O)ccc2ccccc12)c1cc(-c2ccc3ccccc3c2)n[nH]1`, the half-inhibitory concentration (IC50) was greater than 10 µM. On to `O=C(N/N=C/c1cccc(O)c1)c1cc(-c2ccc3ccccc3c2)n[nH]1`, for which the IC50 is greater than 10 µM. Regarding `O=C(N/N=C/c1ccccc1O)c1cc(-c2ccc3ccccc3c2)n[nH]1`, the 50% inhibitory concentration (IC50) was greater than 10 µM. Turning to `O=C(N/N=C/c1ccc(O)cc1)c1cc(-c2ccc3ccccc3c2)n[nH]1`, the IC50 was greater than 10 µM. For the compound `O=C(N/N=C/C1CCCCC1)c1cc(-c2ccc3ccccc3c2)[nH]n1`, the concentration for half-maximal inhibition (IC50) was greater than 10 µM. Regarding `COc1cccc(/C=N/NC(=O)c2cc(-c3ccc4ccccc4c3)[nH]n2)c1`, the concentration for half-maximal inhibition (IC50) is greater than 10 µM.

Regarding `O=C(N/N=C/c1ccc(Cl)cc1)c1cc(-c2ccc3ccccc3c2)[nH]n1`, the IC50 is greater than 10 µM. Regarding `COc1ccccc1/C=N/NC(=O)c1cc(-c2ccc3ccccc3c2)[nH]n1`, the IC50 is greater than 10 µM. Consider `O=C(N/N=C/c1cccc([N+](=O)[O-])c1)c1cc(-c2ccc3ccccc3c2)[nH]n1`, for which the concentration for half-maximal inhibition (IC50) is greater than 10 µM. `COc1ccc(/C=N/NC(=O)c2cc(-c3ccc4ccccc4c3)[nH]n2)cc1`: the IC50 is greater than 10 µM.

Turning to `COc1ccc2ccccc2c1/C=N/NC(=O)c1cc(-c2ccc3ccccc3c2)[nH]n1`, the concentration for half-maximal inhibition (IC50) is greater than 10 µM.

For `O=C(N/N=C/c1ccccc1)c1cc(-c2ccc3ccccc3c2)[nH]n1`, the 50% inhibitory concentration (IC50) is greater than 10 µM. As for `O=C(N/N=C/c1cccnc1)c1cc(-c2ccc3ccccc3c2)[nH]n1`, the figure is greater than 10 µM. As for `O=C(N/N=C/c1ccc2c(c1)OCCO2)c1cc(-c2ccc3ccccc3c2)[nH]n1`, the IC50 was greater than 10 µM.

As to `O=C(N/N=C/c1cccc2ccccc12)c1cc(-c2ccc3ccccc3c2)[nH]n1`, the IC50 is greater than 10 µM.

Regarding `COc1ccc(/C=N/NC(=O)c2cc(-c3ccc4ccccc4c3)[nH]n2)cc1OC`, the IC50 was determined as 6.55 µM.
